Data published in PubChem BioAssay (NCI).
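96-well plates; 48 h exposure; 5 concentrations. Endpoints by linear interpolation between flanking doses. Not reached: highest tested concentration assigned. GI50 is the concentration that inhibits growth by half. Definition used: TGI = concentration required for complete inhibition of growth.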

What was measured:
Experiment in all cases: NCI-60 cell line screen, 48 h
TK-10 renal = system: TK-10 renal
BT-549 breast = system: BT-549 breast
CCRF-CEM leukemia = system: CCRF-CEM leukemia
SK-MEL-5 melanoma = system: SK-MEL-5 melanoma
PC-3 prostate = system: PC-3 prostate
MDA-MB-435 = system: MDA-MB-435
MCF7 breast = system: MCF7 breast
MDA-MB-231 breast = system: MDA-MB-231 breast
ACHN renal = system: ACHN renal
OVCAR-5 ovarian = system: OVCAR-5 ovarian

Row | Compound | GI50 (TK-10 renal) [µM] | TGI (TK-10 renal) [µM] | GI50 (BT-549 breast) [µM] | TGI (BT-549 breast) [µM] | GI50 (CCRF-CEM leukemia) [µM] | TGI (CCRF-CEM leukemia) [µM] | GI50 (SK-MEL-5 melanoma) [µM] | TGI (SK-MEL-5 melanoma) [µM] | GI50 (PC-3 prostate) [µM] | TGI (PC-3 prostate) [µM] | GI50 (MDA-MB-435) [µM] | TGI (MDA-MB-435) [µM] | GI50 (MCF7 breast) [µM] | TGI (MCF7 breast) [µM] | GI50 (MDA-MB-231 breast) [µM] | TGI (MDA-MB-231 breast) [µM] | GI50 (ACHN renal) [µM] | TGI (ACHN renal) [µM] | GI50 (OVCAR-5 ovarian) [µM] | TGI (OVCAR-5 ovarian) [µM]
1 | COc1cc(/C=C/C(=O)c2ccc(F)cc2)ccc1OCCCN1CCN(CC(=O)Nc2ccc(Cl)cc2C(=O)c2ccccc2Cl)CC1 | 10.4 | 26.1 | 10.8 | 26.2 | 2.65 | 9.3 | 3.42 | 14.7 | 5.06 | 45.7 | 8.19 | 22.5 | 2.69 | 12.1 | 11.6 | 27.1 | 12.5 | 32.3 | 13.4 | > 100
2 | Cc1[nH]c(=O)nc(Nc2ccc(Cl)cc2)c1C(=O)N1CCN(CCO)CC1 | 77.7 | > 100 | 53.8 | > 100 | > 100 | > 100 | > 100 | > 100 | > 100 | > 100 | > 100 | > 100 | > 100 | > 100 | 46.3 | > 100 | > 100 | > 100 | > 100 | > 100
3 | Cc1ccc(C(=O)NC2CCC2)cc1-c1ccc(C(=O)NCC2CC2)cc1 | > 25 | > 25 | > 25 | > 25 | > 25 | > 25 | > 21.5 | > 25 | > 25 | > 25 | > 25 | > 25 | > 25 | > 25 | > 25 | > 25 | > 25 | > 25 | > 25 | > 25
4 | NCCN.O=C([O-])CN1CCOCC1.[OH-].[Pt+4] | > 100 | > 100 | > 100 | > 100 | > 100 | > 100 | > 100 | > 100 | > 100 | > 100 | > 100 | > 100 | > 100 | > 100 | > 100 | > 100 | > 100 | > 100 | > 100 | > 100
5 | Cc1nn(-c2ccc([N+](=O)[O-])cc2)c2ncnc(N/N=C/c3ccccc3O)c12 | 0.942 | 7.78 | 0.431 | > 42.4 | 0.222 | > 100 | 0.448 | 2.25 | 0.587 | > 100 | 0.654 | > 100 | 0.36 | > 100 | 0.482 | 3.97 | 0.3 | 1.29 | 2.04 | > 100
6 | C=C1c2ccoc2C[C@H]2[C@H]1CC[C@@]1(O)[C@@](C)(C(=O)OC)CCC[C@]21C | > 100 | > 100 | 26 | 60.3 | 23.5 | 60.1 | 18.1 | 37.8 | 27.6 | > 100 | 23.9 | 54.3 | 9.51 | > 100 | 36.6 | > 100 | 16 | 40.9 | > 100 | > 100
7 | Nc1c(C(=O)c2cccc(C#CCO)c2)cnn1-c1ccc(F)cc1 | > 25 | > 25 | > 25 | > 25 | > 25 | > 25 | > 25 | > 25 | > 25 | > 25 | > 25 | > 25 | > 25 | > 25 | > 25 | > 25 | > 25 | > 25 | > 25 | > 25
8 | Nc1c(C(=O)c2cccc(-c3cccnc3)c2)cnn1-c1ccc(F)cc1F | 6.43 | > 25 | 5.91 | > 25 | 10.2 | > 25 | 1.8 | 13.8 | 5.12 | > 25 | 0.476 | 1.36 | 1.59 | > 25 | 3.8 | > 25 | 6.92 | > 25 | > 19.6 | > 25
9 | C#CCNCCN1C(=O)c2ccc3c4c(ccc(c24)C1=O)C(=O)N(CCNCC#C)C3=O | 7.38 | 23.8 | 7.27 | 14.7 | 5.19 | 25 | 1.65 | 6.56 | 7.09 | 21.2 | 1.52 | 5.85 | 2.67 | 13.4 | 5.24 | 13.6 | 2.63 | 9.8 | 8.63 | 18.3
10 | COc1cc(OC)c(C(=O)/C=C/c2cccc(C#N)c2)c(OC)c1 | 1.63 | 5.52 | 0.611 | 2.5 | 1.03 | > 50 | 1.55 | 6.16 | 1.71 | 8.26 | 1.42 | 6.38 | 1.33 | 6.72 | 2 | 8.08 | 1.13 | 4.47 | 2.26 | 7.95
11 | Cc1cn2c(/C=C3/C(=O)Nc4ccc(O)cc43)c(C)nc2s1 | 2.43 | 26 | 5.82 | 57.7 | 1.25 | – | 1.4 | 7.74 | 2.11 | 37.2 | 0.169 | 1.15 | 1.6 | > 33.6 | 2.82 | > 62.4 | 5.72 | 62.8 | 28.3 | > 100
12 | O=C1NOC(c2ccc(O)cc2)(c2ccc(O)cc2)c2ccccc21 | > 100 | > 100 | > 100 | > 100 | > 100 | > 100 | > 100 | > 100 | > 100 | > 100 | > 100 | > 100 | > 100 | > 100 | > 100 | > 100 | > 100 | > 100 | > 100 | > 100
13 | Cc1[nH]c2ccc(F)cc2c1-c1nc2c3cccnc3c3ncccc3c2[nH]1 | 0.46 | > 100 | 0.295 | > 100 | 0.193 | > 100 | 0.19 | 0.516 | 0.393 | > 100 | 0.426 | > 100 | 0.361 | > 100 | 0.277 | > 100 | 0.327 | > 100 | 0.397 | > 100
14 | O=C1C(c2cnc3ccccc3n2)=C(O)c2ccccc21 | – | > 100 | – | > 100 | – | > 100 | – | > 100 | – | > 85.7 | – | > 100 | – | > 100 | – | > 100 | – | > 100 | – | > 100
15 | O=S(=O)(c1cccc2c(I)cccc12)N1CCCNCC1 | 12.8 | 28 | 16.7 | 43.3 | 14.1 | 32.2 | 8.71 | 25.2 | 14.9 | 32.8 | 17.7 | 35.6 | 36.1 | > 100 | 19.5 | 36.7 | 18.1 | 33.6 | 16 | 33.5
16 | O=[N+]([O-])c1cc(Cl)cnc1Br | – | 12.4 | – | 11.3 | – | 19.6 | – | 10.1 | – | 20.2 | – | 5.4 | – | 2.84 | – | 12.2 | – | 4.66 | – | 9.48
17 | COC(=O)Nc1nc2ccc(Oc3cccc(NC(=O)Nc4cc(C(F)(F)F)ccc4F)c3)cc2[nH]1 | > 25 | > 25 | 23 | > 25 | 10.1 | > 25 | 5.97 | > 17.4 | 14.3 | > 25 | 5.78 | 18.8 | 4.45 | > 7.9 | 11.4 | > 25 | 24.4 | > 25 | > 22.5 | > 25
18 | Cn1cccc1-c1cc(-c2ccc(Br)cc2)[nH]c(=O)c1C#N | > 100 | > 100 | 85.2 | > 100 | > 100 | > 100 | > 100 | > 100 | > 100 | > 100 | > 100 | > 100 | > 100 | > 100 | 82.5 | > 100 | > 100 | > 100 | > 100 | > 100
19 | COc1ccc(N(/C=C/C(=O)C(F)(F)F)CC(=O)c2ccc(F)cc2)cc1 | 42.1 | 96.4 | 30.4 | > 100 | 19.7 | 95.1 | 14.8 | 32 | 23.1 | 85.7 | 19.9 | 52.2 | 43.1 | > 100 | 16.1 | 48.4 | 16.3 | 41.2 | 34.1 | 93.3
